{"source": "paper PMC5591184", "about": "(2017)", "key": {"[1]": {"tested_on": "AG3(T2AG3)3 (DNA, G4) AGGGTTAGGGTTAGGGTTAGGG", "experiment": "UV-vis absorption titration", "conditions": "100 mM NaCl; 10 mM Tris-HCl, 1 mM EDTA, pH 7.5, room temperature; 2 μM ZnTMPyP4"}, "[2]": {"tested_on": "(TG4T)4 (DNA, G4) TGGGGT", "experiment": "UV-vis absorption titration", "conditions": "100 mM KCl; 10 mM Tris-HCl, 1 mM EDTA, pH 7.5, room temperature; 2 μM ZnTMPyP4"}, "[3]": {"tested_on": "T-G8 (DNA, G4) AGGGTTATGGTTAGGGTTAGGG", "experiment": "triplet decay, laser flash photolysis", "conditions": "100 mM NaCl; 10 mM Tris-HCl, 1 mM EDTA, pH 7.5, room temperature; 2 μM ZnTMPyP4; intercalation 63%"}, "[4]": {"tested_on": "T-G10 (DNA, G4) AGGGTTAGGTTTAGGGTTAGGG", "experiment": "triplet decay, laser flash photolysis", "conditions": "100 mM NaCl; 10 mM Tris-HCl, 1 mM EDTA, pH 7.5, room temperature; 2 μM ZnTMPyP4; intercalation 53%"}, "[5]": {"tested_on": "(G4T4G4)2 (DNA, G4) GGGGTTTTGGGG", "experiment": "UV-vis absorption titration", "conditions": "100 mM NaCl; 10 mM Tris-HCl, 1 mM EDTA, pH 7.5, room temperature; 2 μM ZnTMPyP4"}}}
{"compound": "C[n+]1ccc(-c2c3nc(c(-c4cc[n+](C)cc4)c4ccc([n-]4)c(-c4cc[n+](C)cc4)c4nc(c(-c5cc[n+](C)cc5)c5ccc2[n-]5)C=C4)C=C3)cc1.O.[Zn+2]", "values": [{"measurement": "binding constants", "setting": "[1]", "value": "3.6e+06", "unit": "M⁻¹"}, {"measurement": "binding constants", "setting": "[2]", "value": "1e+06", "unit": "M⁻¹"}, {"measurement": "binding", "setting": "[3]", "value": "yes"}, {"measurement": "binding", "setting": "[4]", "value": "yes"}, {"measurement": "binding constants", "setting": "[5]", "value": 100000, "unit": "M⁻¹"}]}
